The experiment addresses integrin αvβ3 (Homo sapiens, UniProt P05106+P06756). Description: Competitive cell-binding assay with ^125I-echistatin on U87MG cells. Conditions: SD.

`CC(F)C(=O)NC[C@@H]1O[C@H](C(=O)NCCCC[C@@H]2NC(=O)[C@@H](Cc3ccccc3)NC(=O)[C@H](CC(=O)O)NC(=O)CNC(=O)[C@H](CCCNC(=N)N)NC2=O)[C@H](O)[C@H](O)[C@H]1O` (stereo partly shown) [galacto-RGD, FP-SAA-c(RGDfK)] showed a concentration for half-maximal inhibition (IC50) of 404 ± 38 nM.

The values are drawn from PMC2999579 (Molecular imaging and biology : MIB : the official …, 2009).
